± gives the standard deviation of the averaged measurements.
Key:
Experiment in all cases: level (log10 ratio to DMSO vehicle control); higher = higher biomarker level / cell amount than vehicle control
[1] = compound: FC(F)(F)C(F)(F)C(F)(F)C(F)(F)CCI [1H,1H,2H,2H-Perfluorohexyl iodide]; settings: in DMSO
Protocol: (§1)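 BioMAP Diversity Plus panel of 12 human primary cell co-culture systems (3C, 4H, LPS, SAg, BT, BF4T, BE3C, CASM3C, HDF3CGF, KF3CT, MyoF, Mphg). Compounds were added 1 h before stimulation and left for 24 h (MyoF 48 h; BT 72 h for soluble read-outs or 6 d for IgG). Biomarkers were read by ELISA, cytotoxicity by SRB, PBMC viability and proliferation by Alamar Blue. Each well value was divided by the mean of 8 DMSO control wells on the same plate and log10 transformed; duplicate blinded samples were tested at 4 concentrations.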

[2] = compound: C=CC(=O)OCC(F)(F)C(F)(F)C(F)(F)C(F)(F)COC(=O)C=C [1H,1H,6H,6H-Perfluorohexane-1,6-diol diacrylate]; settings: 6700 nM; in DMSO
Protocol: as §1

[3] = compound: O=C(O)C(F)(F)C(F)(F)C(F)(F)C(F)(F)C(F)(F)C(F)(F)C(F)(F)F [Ammonium perfluorooctanoate]; settings: in DMSO
Protocol: as §1

[4] = compound: OCCCCC(F)(F)C(F)(F)C(F)(F)C(F)(F)F [4:4 Fluorotelomer alcohol]; settings: in DMSO
Protocol: as §1

[5] = compound: O=P(O)(O)CCC(F)(F)C(F)(F)C(F)(F)C(F)(F)C(F)(F)C(F)(F)F [2-(Perfluorohexyl)ethylphosphonic acid]; settings: in DMSO
Protocol: as §1

[6] = compound: OCC(F)(F)C(F)(F)C(F)(F)C(F)(F)C(F)(F)C(F)(F)C(F)(F)C(F)(F)C(F)(F)C(F)(F)C(F)(F)F [11:1 Fluorotelomer alcohol]; settings: in DMSO
Protocol: as §1

[7] = compound: C=CC(=O)OCC(F)(F)C(F)(F)C(F)(F)C(F)(F)C(F)(F)C(F)(F)C(F)(F)C(F)F [1H,1H,9H-Perfluorononyl acrylate]; settings: in DMSO
Protocol: as §1

Row | Test System | level (log10) ([1]; 6700 nM) | level (log10) ([1]; 20000 nM) | level (log10) ([1]; 60000 nM) | level (log10) [2] | level (log10) ([3]; 6700 nM) | level (log10) ([3]; 20000 nM) | level (log10) ([3]; 60000 nM) | level (log10) ([4]; 6700 nM) | level (log10) ([4]; 20000 nM) | level (log10) ([4]; 60000 nM) | level (log10) ([5]; 6700 nM) | level (log10) ([5]; 20000 nM) | level (log10) ([5]; 60000 nM) | level (log10) ([6]; 1100 nM) | level (log10) ([6]; 3300 nM) | level (log10) ([6]; 10000 nM) | level (log10) ([7]; 6700 nM) | level (log10) ([7]; 20000 nM) | level (log10) ([7]; 60000 nM)
1 | KF3CT:CXCL8/IL-8 | 0.0135 ± 0.044 | 0.0355 ± 0.042 | 0.0315 ± 0.047 | 0.0005 ± 0.021 | 0.0075 ± 0.032 | 0.036 ± 0.018 | 0.034 ± 0.02 | 0.0185 ± 0.037 | -0.006 ± 0.023 | 0.0205 ± 0.036 | -0.021 ± 0.0071 | 0.002 ± 0.0014 | 0.0355 ± 0.0035 | 0 ± 0.013 | 0.015 | 0.014 ± 0.025 | -0.0015 ± 0.0092 | 0.016 ± 0.0028 | 0.012 ± 0.033
2 | CASM3C:CCL2/MCP-1 | 0.0045 ± 0.0021 | -0.008 ± 0.0028 | 0.0235 ± 0.067 | -0.0195 ± 0.0064 | 0.008 ± 0.017 | -0.004 ± 0.0014 | 0.051 ± 0.033 | -0.004 ± 0.011 | -0.025 ± 0.0099 | 0.0285 ± 0.059 | -0.009 ± 0.0028 | -0.0145 ± 0.013 | -0.003 ± 0.033 | -0.01 ± 0.024 | -0.0055 ± 0.012 | 0.012 ± 0.025 | -0.0125 ± 0.0035 | -0.0095 ± 0.0092 | -0.0075 ± 0.018
3 | 3C:CD142/Tissue Factor | -0.0125 ± 0.028 | 0.0155 ± 0.047 | 0.0725 ± 0.037 | -0.134 ± 0.04 | -0.0145 ± 0.0035 | -0.0045 ± 0.0021 | -0.036 ± 0.017 | -0.0215 ± 0.025 | -0.018 ± 0.042 | 0.0155 ± 0.0092 | 0.0325 ± 0.0078 | 0.04 ± 0.035 | 0.119 ± 0.0021 | 0.028 ± 0.024 | 0.074 ± 0.034 | 0.0865 ± 0.0092 | -0.007 ± 0.0028 | -0.0145 ± 0.016 | -0.024 ± 0.033
4 | HDF3CGF:CCL2/MCP-1 | -0.0045 ± 0.005 | 0.0155 ± 0.012 | 0.007 ± 0.021 | -0.437 ± 0.0028 | -0.0285 ± 0.0092 | -0.0605 ± 0.0078 | -0.068 ± 0.014 | 0.004 ± 0.0014 | 0.008 ± 0.0099 | 0.007 ± 0.016 | -0.0335 ± 0.0021 | -0.013 ± 0.023 | -0.053 ± 0.023 | 0.0305 ± 0.033 | 0.0075 ± 0.0064 | 0.0095 ± 0.015 | -0.0315 ± 0.03 | -0.045 ± 0.03 | -0.0815 ± 0.046
5 | CASM3C:CXCL9/MIG | 0.016 ± 0.028 | 0.022 ± 0.03 | 0.0575 ± 0.09 | -0.154 ± 0.031 | -0.001 ± 0.016 | 0.017 ± 0.017 | 0.0225 ± 0.028 | 0.0115 ± 0.0035 | 0.0065 ± 0.026 | 0.0345 ± 0.059 | 0.0095 ± 0.025 | 0.005 ± 0.033 | 0.0335 ± 0.066 | 0.0005 ± 0.0035 | -0.002 ± 0.0028 | 0.014 ± 0.021 | -0.014 ± 0.0042 | -0.0045 ± 0.028 | -0.0035 ± 0.03
6 | MyoF:Collagen III | 0.0045 ± 0.0092 | -0.007 ± 0.0014 | -0.007 ± 0.021 | -0.037 ± 0.045 | 0.0015 ± 0.00071 | -0.0095 ± 0.0064 | -0.0225 ± 0.0021 | 0.0085 ± 0.012 | 0.0015 ± 0.0078 | 0.003 ± 0.017 | 0.003 ± 0.0042 | 0.009 ± 0.0014 | -0.009 ± 0.031 | 0.011 ± 0.0085 | -0.0005 ± 0.00071 | -0.001 ± 0.0071 | 0.0015 ± 0.005 | -0.029 ± 0.011 | -0.102 ± 0.0014
7 | HDF3CGF:CD54/ICAM-1 | -0.023 ± 0.013 | -0.0005 ± 0.005 | -0.0085 ± 0.016 | -0.175 ± 0.038 | -0.0145 ± 0.015 | -0.043 ± 0.0057 | -0.054 ± 0.016 | -0.0135 ± 0.0064 | -0.003 ± 0.011 | -0.0125 ± 0.013 | 0.045 ± 0.04 | 0.0145 ± 0.059 | 0.0065 ± 0.044 | 0.001 ± 0.0071 | -0.0075 ± 0.021 | -0.012 ± 0.0014 | -0.021 ± 0.018 | -0.0435 ± 0.00071 | -0.0765 ± 0.042
8 | CASM3C:Proliferation | -0.01 ± 0.0071 | -0.0155 ± 0.016 | -0.0535 ± 0.0064 | -0.0005 ± 0.037 | 0.0125 ± 0.018 | -0.007 ± 0.045 | -0.021 ± 0.0071 | -0.01 ± 0.0099 | -0.0345 ± 0.005 | -0.0075 ± 0.057 | -0.0385 ± 0.0064 | -0.05 ± 0.013 | -0.06 ± 0.0085 | 0.0145 ± 0.0078 | -0.0185 ± 0.005 | 0.0565 ± 0.0092 | 0.03 ± 0.034 | 0.0175 ± 0.057 | -0.03 ± 0.093
9 | MyoF:TIMP-1 | 0.019 ± 0.041 | 0.024 ± 0.083 | 0.021 ± 0.12 | -0.0015 ± 0.016 | 0.004 ± 0.0085 | 0.012 ± 0.02 | 0.01 ± 0.033 | 0.021 ± 0.062 | 0.0235 ± 0.067 | 0.0315 ± 0.087 | -0.035 ± 0.017 | 0.013 ± 0.0042 | 0.028 ± 0.023 | 0.0095 ± 0.05 | 0.015 ± 0.048 | 0.011 ± 0.02 | -0.0205 ± 0.0078 | -0.015 ± 0.0085 | -0.008 ± 0.03
10 | CASM3C:CXCL8/IL-8 | 0.0105 ± 0.022 | 0.0145 ± 0.028 | 0.0255 ± 0.06 | -0.015 ± 0.0028 | 0.005 ± 0.0099 | 0.0085 ± 0.013 | 0.049 ± 0.033 | 0.0125 ± 0.0035 | 0.0095 ± 0.032 | 0.026 ± 0.045 | -0.0185 ± 0.013 | -0.0015 ± 0.0021 | 0.0145 ± 0.005 | -0.0025 ± 0.0035 | -0.006 | -0.007 ± 0.064 | 0.0175 ± 0.021 | 0.025 ± 0.0028 | 0.0415 ± 0.03
11 | 3C:CD141/Thrombomodulin | -0.041 ± 0.051 | -0.0175 ± 0.052 | 0.0165 ± 0.059 | -0.079 ± 0.021 | -0.01 ± 0.017 | -0.0185 ± 0.012 | -0.0375 ± 0.032 | -0.0225 ± 0.035 | -0.0265 ± 0.067 | -0.007 ± 0.076 | 0.01 ± 0.024 | 0.02 ± 0.051 | 0.0895 ± 0.044 | 0.0225 ± 0.021 | 0.0705 ± 0.00071 | 0.09 ± 0.02 | -0.042 ± 0.0028 | -0.076 ± 0.028 | -0.114 ± 0.016
12 | lMphg:CCL3/MIP-1alpha | -0.0185 ± 0.00071 | -0.0515 ± 0.023 | -0.013 ± 0.014 | -0.0045 ± 0.07 | 0.003 ± 0.018 | 0.013 ± 0.024 | 0.0395 ± 0.029 | -0.0205 ± 0.0035 | -0.041 ± 0.021 | -0.0365 ± 0.022 | 0.035 ± 0.044 | 0.019 ± 0.028 | 0.0315 ± 0.019 | 0.014 ± 0.011 | -0.0165 ± 0.026 | -0.06 ± 0.021 | 0.015 | 0.012 ± 0.023 | 0.061 ± 0.0028
13 | MyoF:CD106/VCAM-1 | 0.001 ± 0.0071 | -0.0135 ± 0.015 | -0.059 ± 0.014 | -0.219 ± 0.035 | -0.011 ± 0.016 | -0.017 ± 0.0085 | -0.017 ± 0.0057 | -0.004 ± 0.016 | -0.01 ± 0.018 | -0.0055 ± 0.0078 | 0.0025 ± 0.011 | 0.01 ± 0.0014 | -0.001 | -0.0055 ± 0.037 | -0.0075 ± 0.022 | -0.0025 ± 0.00071 | -0.0025 ± 0.0035 | -0.032 ± 0.0071 | -0.163 ± 0.0057
